From patent US9453226B2, “Protection of cells from Alu-RNA-induced degeneration and inhibitors for protecting cells” (UNIVERSITY OF KENTUCKY RESEARCH FOUNDATION, priority 2011, dated 2016)

How the values were obtained:
RPE = test: pAlu-induced RPE degeneration in wild-type mice, inhibitors given intravitreously; type: in vivo; details: WT mice, subretinal pAlu, inhibitor intravitreous, fundus photographs and ZO-1 flat mounts
Protocol: Subretinal injection and imaging. Subretinal injections (1 μL) were performed using a Pico-Injector (PLI-100, Harvard Apparatus). Plasmids were transfected in vivo using 10% Neuroporter (Genlantis). Fundus imaging was performed on a TRC-50 IX camera (Topcon) linked to a digital imaging system (Sony). RPE flat mounts were immunolabeled using antibodies against zonula occludens-1 (Invitrogen).
Retinal photographs of dilated mouse eyes were taken with a TRC-50 IX camera (Topcon) linked to a digital imaging system (Sony).
Human eyes fixed in 2-4% paraformaldehyde were prepared as eyecups, cryoprotected in 30% sucrose, embedded in optimal cutting temperature compound (Tissue-Tek OCT; Sakura Finetek), and cryosectioned into 10 μm sections. Depigmentation was achieved using 0.25% potassium permanganate and 0.1% oxalic acid. Immunohistochemical staining was performed with the rabbit antibody against NLRP3 (1:100, Sigma Aldrich) or rabbit antibody against Caspase-1 (prediluted, AbCam). Isotype IgG was substituted for the primary antibody to assess the specificity of the staining. Bound antibody was detected with biotin-conjugated secondary antibodies, followed by incubation with ABC reagent and visualized by Vector Blue (Vector Laboratories). Levamisole (Vector Laboratories) was used to block endogenous alkaline phosphatase activity. Slides were washed in PBS, counterstained with neutral red (Fisher Scientific), rinsed with deionized water, air dried, and then mounted in Vectamount (Vector Laboratories). Fluorescent labeling of human tissue was performed with the rabbit antibody against PYCARD (1:50, Clone N-15, Santa Cruz Biotechnology) Immunolabeling was visualized by fluorescently conjugated anti-rabbit secondary antibody (Invitrogen). Tissue autofluorescence was quenched by incubating the sections in 0.3% Sudan black (Fisher Scientific). Sections were mounted in Vectashield with DAPI (Vector Laboratories). Mouse RPE/choroid flat mounts were fixed with 4% paraformaldehyde or 100% methanol, stained with rabbit antibodies against human zonula occludens-1 (1:100, Invitrogen) and visualized with Alexa594 (Invitrogen). All images were obtained using the Leica SP-5 or Zeiss Axio Observer Z1 microscopes.
Subretinal injections (1 μL) in mice were performed using a Pico-Injector (PLI-100, Harvard Apparatus). In vivo transfection of plasmids coding for two different Alu sequences (pAlu) or empty control vector (pNull) (Bennett et al., 2008; Kaneko et al., 2011; Shaikh et al., 1997) was achieved using 10% Neuroporter (Genlantis). AAV1-BEST1-Cre (Alexander and Hauswirth, 2008) or AAV1-BEST1-GFP were injected at 1.0×10^11 pfu/mL and in vitro transcribed Alu RNA was injected at 0.3 mg/mL.
siRNAs formulated in siRNA buffer (20 mM KCL, 0.2 mM MgCl2 in HEPES buffer at pH 7.5; Dharmacon) or phosphate buffered saline (PBS; Sigma-Aldrich); the TLR4 antagonist Ultra Pure Rhodobacter sphaeroides LPS (LPS-RS, InvivoGen), a peptide inhibitor of MyD88 homodimerization IMG-2005 (IMGENEX), control inhibitor (IMGENEX), recombinant IL-18 (Medical & Biological Laboratories), neutralizing rat antibodies against mouse IL-1β (IMGENEX), neutralizing rat antibodies against mouse IL-18 (Medical & Biological Laboratories), isotype control IgGs (R&D Systems or eBioscience as appropriate), Caspase-1 inhibitor Z-WEHD-FMK (R&D Systems), Caspase control inhibitor Z-FA-FMK (R&D Systems), DPI (Enzo Life Sciences), Mito-TEMPO (Enzo Life Sciences), MitoQ and dTPP (both adsorbed to cyclodextrin and provided by M.P. Murphy, MRC Mitochondrial Biology Unit), and gp91ds-tat and scrambled gp91 ds-tat (both Anaspec), were dissolved in phosphate buffered saline (PBS; Sigma-Aldrich) or dimethyl sulfoxide (DMSO; Sigma-Aldrich), and injected into the vitreous humor in a total volume of 1 μL with a 33-gauge Exmire microsyringe (Ito Corporation). […] As a control, Luc siRNA-chol (17+2 nt) was used with identical dosages. […]

miRNA = miRNA abundance in Dicer1-depleted mouse RPE cells; type: cell-based
Text: Total RNA containing miRNAs was polyadenylated and reverse transcribed using universal primer using the All-In-One miRNA q-RT-PCR Detection Kit (GeneCopoeia) according to the manufacturer's specifications using a universal reverse primer in combination with the following forward primers: mouse miR-184 (5′-[…]-3′); mouse miR-221/222 (5′-[…]-3′); mouse miR-320a (5′-[…]-3′), and mouse miR-484 (5′-[…]-3′). miRNA levels were normalized to levels of U6 snRNA (5′-[…]-3′) using the 2^−ΔΔCt method. Detection was achieved by SYBR green qPCR with the following conditions: 95° C. for 10 min followed by 40 cycles of 95° C. for 10 s, 60° C. for 20 s and 72° C. for 20 s. Amplicon specificity was assessed by melt curve analysis and unique bands by agarose gel electrophoresis.

Substance	pAlu-induced RPE degeneration (RPE)	pAlu-induced RPE degeneration (RPE; listed as Caspase-1 peptide inhibitor)	miRNA abundance versus control peptide (miRNA)
Z-WEHD-FMK	blocked	protects	–
DRQIKIWFQNRRMKWKKRDVLPGT [MyD88 inhibitory peptide]	inhibited	–	No significant difference
